US10844023B2 (Washington University, priority 2017, dated 2020)
* marks the point of attachment. FITC = O=C1OC2(c3ccc(O)cc3Oc3cc(O)ccc32)c2ccc(NC(=S)*)cc21

Tests used:
[1] = Solubility of library compounds in DMSO; assay type: physicochemical; details: stock concentration of 10 mM in DMSO
Method: A pharmacophore model was generated based on the interactions of HR1 and HR2 domains in the calculated structural model of Mfn2 in the closed conformation. The key features included hydrophobic interactions involving Mfn2 HR1: Val372 and Met376, and aromatic interactions and hydrogen bonding involving Mfn2 HR1 His380. […] A library comprising ˜14 million commercially available compounds was prepared in silico and evaluated using PHASE to fit these criteria. Top ranked hits were clustered, and filtered based on pharmacological properties using Qikprop. The top 55 (see TABLE 4) commercially available small molecules conforming to the model were selected for functional screening and purchased in 1 mg aliquots. Each compound was dissolved to a stock concentration of 10 mM in DMSO and applied to Mfn2 null MEFs overnight at a final concentration of […]. Eleven of the library members were not soluble in DMSO at the required concentration. The 44 fully soluble compounds were screened in groups of 6 at a time for cytotoxicity (calcein AM/ethidium homodimer staining; ThermoFisher LIVE/DEAD Assay cat #L3224) and fusogenicity (increase in mitochondrial aspect ratio; MitoTracker Orange staining) compared to cells treated overnight with […] of the parent HR1 367-384 mitofusin agonist peptide (positive control) or vehicle (DMSO). Images were acquired by confocal microscopy. Each compound was scored for fusogenicity (see e.g., FIG. 24A) and % cell death (see e.g., FIG. 24B). Pharmacophore model fit generally correlated with actual fusogenic activity (Pearson correlation coefficient r=0.214; see e.g., FIG. 24A, inset; TABLE 4).

[2] = Human liver microsome stability assay; assay type: in vitro ADME; details: human liver microsomes (FIG. 49)
Method: FIG. 49 is a series of structures and a graph showing dose-response and human liver microsomal stability data for fusogenic compounds from FIG. 22. […] T1/2 values are from human liver microsome stability assay.
(§1) Plasma protein binding was measured using equilibrium dialysis; % bound=(1-[free compound in dialysate]/[total compound in retentate])×100. Plasma stability of […] compound in clarified freeze-thawed plasma was assessed by LC-MS/MS of supernatants after protein precipitation; 120 min data are reported for studies including 0, 10, 30, 60, and 120 min. Microsome stability of […] compound in liver microsomes (0.5 mg/ml) after 0, 5, 10, 20, 30, 60 min. incubation was assessed by LC/MS/MS of reaction extracts.

Mfn2 null MEFs = assay: Mitochondrial elongation (aspect ratio) fusogenicity assay; assay type: cell-based, mouse; set-up: % long compare to B: dose or concentration left out as unconfirmed; details: for Fusogenic activity: mitochondrial elongation / fusion; for % long compare to B: mitochondrial elongation relative to Cpd B (B01 = 100), compound overnight as printed (FIG. 48)
[3] = Liver microsome stability; assay type: in vitro ADME
Method: as §1

[4] = Plasma protein binding (equilibrium dialysis); assay type: in vitro ADME
Method: as §1

MFN2 HR2 = biological target: T1, MFN2 HR2 (Homo sapiens, UniProt O95140); assay: HR1 peptide-HR2 target binding assay; details: FITC minipeptide 374-384 at HR2 binding site
T1 construct: host or cells: synthetic peptide (note in the listing); immobilised on Ni-NTA resin
T1 sequence (O95140 with tags, fused parts or gaps limits assumed): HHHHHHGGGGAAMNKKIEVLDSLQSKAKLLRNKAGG
Source text: The Mfn-derived fusion-promoting and -inhibiting mini-peptides (simulated to obtain the chemical Mfn agonists in TABLE 1 and TABLE 2) were modified from amino acid heptad repeats (HR) in the HR1 domain and predicted to interact with their counterparts in the carboxyl terminus HR2 domain within the Mfn stalk region (see e.g., FIG. 1, top panel). A high-throughput binding assay was designed whereby the target HR2 peptide sequences, modified to include amino terminal 6×His tags and Gly linkers, were bonded to Ni-chelate resin (20 μg/ml) and used as immobilized “receptor” for amino-FITC-tagged Mfn2 374-384 (agonist ligand) in which the Ser analogous to Ser378 was replaced with Asp to confer the negative charge essential for activity. For antagonist studies the ligand was amino-FITC-tagged Mfn2 406-418. The FITC peptide ligands are suspended at 1 mM in 30% DMSO, 70% water (to minimize spontaneous aggregation) and diluted into binding buffer (de-ionized water) to a final concentration of 25 μM in the presence or absence of competing compound. Dose-dependent loss of resin-bound FITC signal (485 nm excitation/538 nm emission) measured in a 96 well spectrofluorometer represents binding of compound to its HR2 target (see e.g., FIG. 10, FIG. 11). Either the ligand peptide or the receptor peptide can be modified to represent mutations, variations, or posttranslational modifications of Mfn2. […]
Target HR2 peptide sequence modified to include amino terminal 6×His tags and Gly linkers, were bonded to Ni-NTA resin (4.4 μg/ml) (Quiagen) and used as immobilized “receptor” for amino-FITC-tagged Mfn2 374-384 (ligand) in which the Ser analogous to Ser378 was replaced with Asp to confer the negative charge essential for activity. […] Resin-bound FITC signal (485 nm excitation/538 nm emission) measured in a 96 well spectrofluorometer (Spectramax M5e, Molecular Devices) represented binding to HR2 target. Competition binding isotherms were plotted and IC50 values calculated using Prism 7 (GraphPad).

Molecule: Cc1cc(C)nc(SCC(C)Cn2c(N3CCC(C(N)=O)CC3)nc3c2c(=O)[nH]c(=O)n3C)n1 (centres unmarked) [1-(7-{3-[(4,6-dimethylpyrimidin-2-yl)sulfanyl]-2-methylpropyl}-3-methyl-2,6-dioxo-2,3,6,7-tetrahydro-1H-purin-8-yl)piperidine-4-carboxamide]
- Solubility in DMSO at required concentration [1]: Insol- uble

Molecule: Cn1c(SCC(=O)Nc2sc3c(c2C(N)=O)CCC3)nnc1-c1ccccc1 [1-B1, 2-{2-[(4-methyl-5-phenyl-4H-1,2,4-triazol-3-yl]sulfanyl]acetamido}-4H,5H,6H-cyclopenta[b]thiophene-3-carboxamide]
- Resistance to liver microsomal degradation vs Cpd B [2]: greater resistance to liver microsomal degradation
- Fusogenic activity (Mfn2 null MEFs): more potent
- % long compare to B (Mfn2 null MEFs; Mfn2 null MEFs): 107%

Molecule: CCn1c(SCC(=O)Nc2sc3c(c2C(N)=O)CCC3)nnc1C1CC1 [1-G11, 2-{2-[(5-cyclopropyl-4-ethyl-4H-1,2,4-triazol-3-yl)sulfanyl]acetamido}-4H,5H,6H-cyclopenta[b]thiophene-3-carboxamide]
- Resistance to liver microsomal degradation vs Cpd B [2]: greater resistance to liver microsomal degradation
- Fusogenic activity (Mfn2 null MEFs): more potent
- % long compare to B (Mfn2 null MEFs; Mfn2 null MEFs): 99%

Molecule: CCC(Sc1nc2cc(OC)c(OC)cc2c2nc(CCn3nc(C)cc3C)nn12)C(=O)Nc1ccc(F)cc1 (centres unmarked) [2-({2-[2-(3,5-dimethyl-1H-pyrazol-1-yl)ethyl]-8,9-dimethoxy-[1,2,4]triazolo[1,5-c]quinazolin-5-yl]sulfanyl)-N-(4-fluorophenyl)butanamide]
- Solubility in DMSO at required concentration [1]: Insol- uble

Molecule: CC(=O)NC12CC3CC(C1)CC(C(=O)NCCSCc1ccc(C)cc1)(C3)C2 [3-acetamido-N-(2-{[(4-methylphenyl)methyl]sulfanyl}ethyl)adamantane-1-carboxamide]
- Solubility in DMSO at required concentration [1]: Insol- uble

Molecule: Cc1ccc(C(=O)C(C)Sc2nnc3c(=O)n(-c4ccccc4)ccn23)cc1C (centres unmarked) [3-{[1-(3,4-dimethylphenyl)-1-oxopropan-2-yl]sulfanyl}-7-phenyl-7H,8H-[1,2,4]triazolo[4,3-a]pyrazin-8-one]
- Solubility in DMSO at required concentration [1]: Insol- uble

Molecule: Cc1ccc(C(=O)C(C)Sc2nnc3c(=O)n(-c4ccc(Br)cc4)ccn23)cc1C (centres unmarked) [7-(4-bromophenyl)-3-{[1-(3,4-dimethylphenyl)-1-oxopropan-2-yl]sulfanyl}-7H,8H-[1,2,4]triazolo[4,3-a]pyrazin-8-one]
- Solubility in DMSO at required concentration [1]: Insol- uble

Molecule: COc1cc(Cl)c(C)cc1N1C(=O)[C@@H]2C[C@H]1CN2Cc1cccn1-c1ncccn1 [(1S,4S)-2-(4-chloro-2-methoxy-5-methylphenyl)-5-{[1-(pyrimidin-2-yl)-1H-pyrrol-2-yl]methyl}-2,5-diazabicyclo[2.2.1]heptan-3-one]
- Solubility in DMSO at required concentration [1]: Insol- uble

Molecule: Cn1c(CCCNC(=O)NC2CCOCC2)nnc1C1CC1 [Mitolityn-6, 1-(3-(5-cyclopropyl-4-methyl-4H-1,2,4-triazol-3-yl)propyl)-3-(tetrahydro-2H-pyran-4-yl)urea]
- Liver microsome stability [3]: stability in the liver microsome assay
- Fusogenic activity (Mfn2 null MEFs): highest potency
- Plasma protein binding [4]: low plasma protein binding

Molecule: Cc1ccc(CSCCNC(=O)C2CCN(c3ccc4nnc(C(F)(F)F)n4n3)CC2)cc1 [N-(2-{[(4-methylphenyl)methyl]sulfanyl}ethyl)-1-[3-(trifluoromethyl)-[1,2,4]triazolo[4,3-b]pyridazin-6-yl]piperidine-4-carboxamide]
- Solubility in DMSO at required concentration [1]: Insol- uble

Molecule: Cc1cc(NC(=O)C(C)SCC(=O)Nc2ccc(NC(C)c3ccccc3)cc2)no1 (centres unmarked) [N-(5-methyl-1,2-oxazol-3-yl)-2-{[({4-[(1-phenylethyl)amino]phenyl}carbamoyl)methyl]sulfanyl}propanamide]
- Solubility in DMSO at required concentration [1]: Insol- uble

Molecule: CC(Sc1nc(C2CC2)nc2c1c(=O)[nH]c(=O)n2C1CC1)C(=O)NCC1CCCCC1 (centres unmarked) [N-(cyclohexylmethyl)-2-({2,8-dicyclopropyl-5,7-dioxo-5H,6H,7H,8H-pyrimido[4,5-d][1,3]diazin-4-yl}sulfanyl)propanamide]
- Solubility in DMSO at required concentration [1]: Insol- uble

Molecule: Cc1ccc(SC(C)C(=O)Nc2ccc(NS(=O)(=O)c3ccc4c(c3)OCCCO4)cc2)cc1 (centres unmarked) [N-[4-(3,4-dihydro-2H-1,5-benzodioxepine-7-sulfonamido)phenyl]-2-[(4-methylphenyl)sulfanyl]propanamide]
- Solubility in DMSO at required concentration [1]: Insol- uble

Molecule: CCc1nnc(SC(CC)C(=O)N(CC)c2cccc(C)c2)c2cc3occc3n12 (centres unmarked) [N-ethyl-2-({12-ethyl-5-oxa-1,10,11-triazatricyclo[6.4.0.0^2,6]dodeca-2(6),3,7,9,11-pentaen-9-yl}sulfanyl)-N-(3-methylphenyl)butanamide]
- Solubility in DMSO at required concentration [1]: Insol- uble

Molecule: Cc1ccc(NC(=O)CC2SC(NC(c3ccc(C(C)C)cc3)c3c(O)[nH]c(=O)[nH]c3=O)=NC2=O)c(C)c1 (centres unmarked) [drawing 252, N-(2,4-dimethylphenyl)-2-(2-{[(6-hydroxy-2,4-dioxo-1,2,3,4-tetrahydropyrimidin-5-yl)[4-(propan-2-yl)phenyl]methyl]amino}-4-oxo-4,5-dihydro-1,3-thiazol-5-yl)acetamide]
- Aspect ratio (MEAN ± SEM) (Mfn2 null MEFs; Mfn2 null MEFs, overnight, treatment with 1 μM compound (footnote)): 3.1 ± 0.3
- Fusogenicity Rank (Mfn2 null MEFs; rank order of aspect ratio among 44 soluble library compounds): 35

Molecule: O=C(NCCCCc1ccccc1)Nc1ccccc1 [pA, 3-phenyl-1-(4-phenylbutyl)urea]
- % long compare to B (Mfn2 null MEFs; Mfn2 null MEFs): 59%

Molecule: NC(=O)c1c(NC(=O)CCCc2ccccc2)sc2c1CCC2 [pB, 2-(4-phenylbutanamido)-4H,5H,6H-cyclopenta[b]thiophene-3-carboxamide]
- % long compare to B (Mfn2 null MEFs; Mfn2 null MEFs): 6%

Molecule: Ala^378 minipeptide: "(NH3) FITC-GGGG-AVRGIMDALHMAAR-GG (COOH) (FITC labeled Ala peptide) (SEQ ID NO: 28)" ({FITC}-GGGGAVRGIMDALHMAARGG-OH)
- Binding to / competition at HR2 target (MFN2 HR2): did not

Molecule: Ser^378 minipeptide: "(NH3) FITC-GGGG-AVRGIMDSLHMAAR-GG (COOH) (FITC labeled Ser peptide) (SEQ ID NO: 26)" ({FITC}-GGGGAVRGIMDSLHMAARGG-OH)
- Binding to / competition at HR2 target (MFN2 HR2): did not
